This passage reports IC50 results from US20070270421A1, “Novel pyridine Derivative and Pyrimidine Derivative (1)” (priority 2004, published 2007).

In the experiment the target is T1, HGFR (His6-HGFR cytoplasmic domain) (Homo sapiens, UniProt P08581).
T1 construct: made in house; host or cells: Spodoptera frugiperda Sf9 insect cells (baculovirus, pFastBac-HT)
T1 sequence (P08581 956-1390 limits assumed): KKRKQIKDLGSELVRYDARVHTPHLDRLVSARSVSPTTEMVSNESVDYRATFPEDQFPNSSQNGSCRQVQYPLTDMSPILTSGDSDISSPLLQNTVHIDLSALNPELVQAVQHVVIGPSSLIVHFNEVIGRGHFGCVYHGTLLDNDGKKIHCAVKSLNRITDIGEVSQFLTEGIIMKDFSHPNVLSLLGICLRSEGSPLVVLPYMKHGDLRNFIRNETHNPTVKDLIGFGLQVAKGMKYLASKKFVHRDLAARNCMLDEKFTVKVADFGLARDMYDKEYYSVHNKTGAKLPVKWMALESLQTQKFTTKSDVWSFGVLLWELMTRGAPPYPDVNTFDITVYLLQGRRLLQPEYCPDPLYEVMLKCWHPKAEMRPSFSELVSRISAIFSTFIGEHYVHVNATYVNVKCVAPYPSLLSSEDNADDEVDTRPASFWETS
As to the kind of experiment: Inhibitory activity against HGFR tyrosine kinase activity (HTRF). Format: biochemical. Particulars: biotin-poly(GT), ATP, 30° C. 10 min, read-out: IC50 (concentration necessary to inhibit HGFR kinase activity by 50%). The source says:
The cytoplasmic domain of HGFR (Genbank Accession No. J02958) is a 1.3 kb DNA fragment beginning with Lys974 and including a stop codon, and described by Park et al. (Proc. Natl. Acad. Sci. U.S.A. 84(18), 6379-6383, 1987). The DNA fragment was isolated from the human placental cDNA library (purchased from Clontech) by PCR (TaKaRa Ex Taq™ Kit, purchased from TaKaRa) using two kinds of primers (SEQ ID NO: 1, 5′-[…]-3′ and SEQ ID NO: 2, 5′-[…]-3′, purchased from Invitrogen). The DNA fragment was cloned into a baculovirus transplace vector (pFastBac™-HT (purchased from GIBCO BRL)) to produce a recombinant construct. The construct was transfected into insect cells (Spodoptera frugiperda 9 (Sf9)) to produce a solution of HGFR transfected baculovirus (preparation of a recombinant baculovirus can be found in the standard text (Bac-to-Bac Baculovirus Expression System (GIBCO BRL)). The cloning of the other receptor tyrosine kinases and preparation of the recombinant baculovirus solutions were performed using a cytoplasmic fragment starting from Lys791 (VEGFR2, Genbank Accession No. L04947), a cytoplasmic fragment starting from Lys398 (FGFR1, Genbank Accession No. X52833) and a cytoplasmic fragment starting from Lys558 (PDGFRβ, Genbank Accession No. M21616) in stead of HGFR in the above method. EGFR was purchased from Sigma (Production No. E-2645).
To the suspension of Sf9 cells (3×10^8 cells) in SF-900II medium (purchased from Invitrogen) containing 2% FBS was added a solution of HGFR transfected baculovirus above (4 ml), followed by a shaking culture at 27° C. for 48 hrs. The cells infected with the HGFR transfected baculovirus were centrifuged at 1,000 rpm, 4° C. for 5 min to remove the supernatant. The precipitated infected cells were suspended in 80 ml of ice-cold PBS, and centrifuged at 1,000 rpm, 4° C. for 5 min to remove the supernatant. The precipitated infected cells were suspended in 40 ml of ice-cold Lysis Buffer (50 mM Tris-HCl (pH 8.5), 5 mM 2-mercaptoethanol, 100 mM KCl, 1 mM PMSF and 1% (v/v) NP-40). The suspension was centrifuged at 12,000 rpm, 4° C. for 30 min to provide a supernatant.
The supernatant was loaded onto an Ni-NTA agarose column (3 ml, purchased from Qiagen) equilibrated with 30 ml of Buffer A (20 mM Tris-HCl (pH 8.5), 5 mM 2-mercaptoethanol, 500 mM KCl, 20 mM imidazole and 10% (v/v) glycerol). The column was washed with 30 ml of Buffer A, 6 ml of Buffer B (20 mM Tris-HCl (pH 8.5), 5 mM 2-mercaptoethanol, 1 M KCl, and 10% (v/v) glycerol) and 6 ml of Buffer A in this order. Then, the column was eluted with 6 ml of Buffer C (20 mM Tris-HCl (pH 8.5), 5 mM 2-mercaptoethanol, 100 mM KCl, 100 mM imidazole, and 10% (v/v) glycerol) to provide a fraction. The fraction was entrapped in a dialysis membrane (purchased from Spectrum Laboratories), dialyzed at 4° C. overnight with 1 L of dialysis buffer (20 mM Tris-HCl (pH 7.5), 10% (v/v) glycerol, 1 mM dithiothreitol, 0.1 mM Na3VO4 and 0.1 mM EGTA), and stored at −80° C. until used. An aliquot of the dialyzed fraction was subjected to SDS electrophoresis, and then a recombinant protein (His6-HGFR, the HGFR cytoplasmic domain fused with six histidine at the N terminus) detected at a molecular weight of about 60 kDa when stained with Coomassie Brilliant Blue, was determined with regard to protein content using BSA (purchased from Sigma) as a standard. The VEGFR2 cytoplasmic domain, the FGFR1 cytoplasmic domain, and the PDGFRβ cytoplasmic domain were fused with six histidine at the N terminus by the similar method to produce respective recombinant proteins (His6-VEGFR2, His6-FGFR1, and His6-PDGFRβ). […]
Turning to `CN1CCN(C2CCN(C(=O)Nc3cc(Oc4ccc(NC(=S)NC(=O)Cc5ccccc5)cc4F)ccn3)CC2)CC1` [Example 182, 4-{2-Fluoro-4-[3-(2-phenylacetyl)thioureido]phenoxy}-2-{[4-(1-methylpiperazin-4-yl)piperidin-1-yl]carbonylamino}pyridine], the IC50 was determined as 70 nM. The figure for `CN(C)CCN1CCC(N(C)C(=O)Nc2cc(Oc3ccc(NC(=S)NC(=O)Cc4ccc(F)cc4)c(F)c3)ccn2)CC1` [Example 183] is 160 nM; for `CN(C)CCN1CCC(N(C)C(=O)Nc2cc(Oc3ccc(NC(=S)NC(=O)Cc4ccc(F)cc4)cc3F)ncn2)CC1` [Example 184, 1-[1-(2-Dimethylaminoethyl)piperidin-4-yl]-3-[6-(2-fluoro-4-{3-[2-(4-fluorophenyl)acetyl]thioureido}phenoxy)pyrimidin-4-yl]-1-methylurea] it is 130 nM; for `O=C(Cc1ccccc1)NC(=S)Nc1ccc(Oc2ccnc(NC(=O)N3CCC(N4CCC(O)CC4)CC3)c2)c(F)c1` [Example 185, 4-{2-Fluoro-4-[3-(2-phenylacetyl)thioureido]phenoxy}-2-{[4-(4-hydroxypiperidin-1-yl)piperidin-1-yl]carbonylamino}pyridine] it is 47 nM.

With `CN(C)CC1CCN(C(=O)Nc2cc(Oc3ccc(NC(=S)NC(=O)Cc4ccc(F)cc4)cc3)ccn2)CC1` [Example 188, 2-{[4-(Dimethylaminomethyl)piperidin-1-yl]carbonylamino}-4-(4-{3-[2-(4-fluorophenyl)acetyl]thioureido}phenoxy)pyridine], the IC50 was 130 nM. Consider `CN(C)C1CN(C2CCN(C(=O)Nc3cc(Oc4ccc(NC(=S)NC(=O)Cc5ccc(F)cc5)c(F)c4)ccn3)CC2)C1` [Example 189, 4-[3-(Dimethylamino)azetidin-1-yl]piperidine-1-carboxylic acid [4-(3-fluoro-4-{3-[2-(4-fluorophenyl)acetyl]thioureido}phenoxy)pyridin-2-yl]amide], for which the IC50 stood at 110 nM. As for `O=C(Cc1ccc(F)cc1)NC(=S)Nc1ccc(Oc2ccnc(NC(=O)N3CCC(N4CCC(O)CC4)CC3)c2)cc1` [Example 190, 2-{[4-(4-Hydroxypiperidin-1-yl)piperidin-1-yl]carbonylamino}-4-(4-{3-[2-(4-fluorophenyl)acetyl]thioureido}phenoxy)pyridine], the IC50 turned out to be 60 nM. The same measure for `CN1CCN(C2CCN(C(=O)Nc3cc(Oc4ccc(NC(=S)NC(=O)Cc5ccc(F)cc5)cc4)ccn3)CC2)CC1` [Example 191, 4-(4-{3-[2-(4-Fluorophenyl)acetyl]thioureido}phenoxy)-2-{[4-(1-methylpiperazin-4-yl)piperidin-1-yl]carbonylamino}pyridine]: 57 nM. As to `CN1CCN(C2CCN(C(=O)Nc3cc(Oc4ccc(NC(=S)NC(=O)Cc5ccc(F)cc5)cc4F)ncn3)CC2)CC1` [Example 192, 4-(2-Fluoro-4-{3-[2-(4-fluorophenyl)acetyl]thioureido}phenoxy)-6-{[4-(1-methylpiperazin-4-yl)piperidin-1-yl]carbonylamino}pyrimidine], the IC50 turned out to be 40 nM. Turning to `CN1CCC(N2CCN(C(=O)Nc3cc(Oc4ccc(NC(=S)NC(=O)Cc5ccc(F)cc5)cc4F)ncn3)CC2)CC1` [Example 193, 4-(2-Fluoro-4-{3-[2-(4-fluorophenyl)acetyl]thioureido}phenoxy)-6-{[4-(1-methylpiperidin-4-yl)piperazin-1-yl]carbonylamino}pyrimidine], the IC50 was found to be 52 nM. The same measure for `CN(C)CCN1CCC(N(C)C(=O)Nc2cc(Oc3ccc(NC(=S)NC(=O)Cc4ccc(F)cc4)cc3)ccn2)CC1` [Example 194, 1-[1-(2-Dimethylaminoethyl)piperidin-4-yl]-3-[4-(4-{3-[2-(4-fluorophenyl)acetyl]thioureido}phenoxy)pyridin-2-yl]-1-methylurea]: 62 nM.

Turning to `CN(C)C1CN(C2CCN(C(=O)Nc3cc(Oc4ccc(NC(=S)NC(=O)Cc5ccc(F)cc5)cc4)ccn3)CC2)C1` [Example 195, 4-[3-(Dimethylamino)azetidin-1-yl]piperidine-1-carboxylic acid [4-(4-{3-[2-(4-fluorophenyl)acetyl]thioureido}phenoxy)pyridin-2-yl]amide], the IC50 was found to be 57 nM. As to `CN1CC(N2CCN(C(=O)Nc3cc(Oc4ccc(NC(=S)NC(=O)Cc5ccc(F)cc5)cc4F)ncn3)CC2)C1` [Example 196], the IC50 is 57 nM. The same measure for `CN1CC[C@H](N(C)C(=O)Nc2cc(Oc3ccc(NC(=S)NC(=O)Cc4ccc(F)cc4)cc3F)ncn2)C1` [Example 201, 3-[6-(2-Fluoro-4-{3-[2-(4-fluorophenyl)acetyl]thioureido}phenoxy)pyrimidin-4-yl]-1-methyl-1-[(3S)-1-methylpyrrolidin-3-yl]urea]: 50 nM; for `CN(C)C1CN(C(=O)Nc2cc(Oc3ccc(NC(=S)NC(=O)Cc4ccc(F)cc4)cc3F)ncn2)C1` [Example 208, 3-Dimethylaminoazetidine-1-carboxylic acid [6-(2-fluoro-4-{3-[2-(4-fluorophenyl)acetyl]thioureido}phenoxy)pyrimidin-4-yl]amide]: 50 nM; for `CN(C)C[C@H]1CCN(C(=O)Nc2cc(Oc3ccc(NC(=S)NC(=O)Cc4ccc(F)cc4)cc3F)ncn2)C1` [Example 209, 4-{[(3R)-3-(Dimethylaminomethyl)pyrrolidin-1-yl]carbonylamino}-6-(2-fluoro-4-{3-[2-(4-fluorophenyl)acetyl]thioureido}phenoxy)pyrimidine]: 65 nM.

As to `CN(C)C[C@@H]1CCN(C(=O)Nc2cc(Oc3ccc(NC(=S)NC(=O)Cc4ccc(F)cc4)c(F)c3)ccn2)C1` [Example 219, (3S)-3-Dimethylaminomethylpyrrolidine-1-carboxylic acid [4-(3-fluoro-4-{3-[2-(4-fluorophenyl)acetyl]thioureido}phenoxy)pyridin-2-yl]amide], the IC50 was determined as 42 nM.

Take `CN(C)CCCN1CCC(N(C)C(=O)Nc2cc(Oc3ccc(NC(=S)NC(=O)Cc4ccc(F)cc4)cc3F)ncn2)CC1` [Example 221, 1-[1-(3-Dimethylaminopropyl)piperidin-4-yl]-3-[6-(2-fluoro-4-{3-[2-(4-fluorophenyl)acetyl]thioureido}phenoxy)pyrimidin-4-yl]-1-methylurea]: the IC50 turned out to be 170 nM. Take `CN(C)CCN1CCC(N(C)C(=O)Nc2cc(Oc3ccc(NC(=S)NC(=O)Cc4ccccc4)cc3F)ccn2)CC1` [Example 223, 1-[1-(2-Dimethylaminoethyl)piperidin-4-yl]-3-{4-[2-fluoro-4-(3-phenylacetylthioureido)phenoxy]pyridin-2-yl}-1-methylurea]: the IC50 came to 58 nM. On to `CN(C)CCN1CCC(N(C)C(=O)Nc2cc(Oc3ccc(NC(=S)NC(=O)Cc4ccc(F)cc4)cc3F)ccn2)CC1` [Example 224, 1-[1-(2-Dimethylaminoethyl)piperidin-4-yl]-3-[4-(2-fluoro-4-{3-[2-(4-fluorophenyl)acetyl]thioureido}phenoxy)pyridin-2-yl]-1-methylurea], for which the IC50 is 88 nM. The same measure for `CN(C)CCCN1CCC(N(C)C(=O)Nc2cc(Oc3ccc(NC(=S)NC(=O)Cc4ccc(F)cc4)cc3F)ccn2)CC1` [Example 225, 1-[1-(3-Dimethylaminopropyl)piperidin-4-yl]-3-[4-(2-fluoro-4-{3-[2-(4-fluorophenyl)acetyl]thioureido}phenoxy)pyridin-2-yl]-1-methylurea]: 79 nM.
